Data: ChEMBL document CHEMBL1133610, “GRID/CPCA: a new computational tool to design selective ligands” (J Med Chem, 2000)

Experiments:
Prothrombin = Prothrombin (Homo sapiens, UniProt P00734); test: Inhibitory activity against human thrombin
Coagulation factor X [1] = target: T1, Coagulation factor X (Homo sapiens, UniProt P00742); test: Inhibitory activity against human Coagulation factor Xa
Serine protease 1 = Serine protease 1 (Homo sapiens, UniProt P07477); test: Inhibitory Activity against Trypsin
Coagulation factor X [2] = target: T1, Coagulation factor X; test: Inhibitory Activity against Coagulation factor X

T1 sequence (P00742 41-179 limits assumed): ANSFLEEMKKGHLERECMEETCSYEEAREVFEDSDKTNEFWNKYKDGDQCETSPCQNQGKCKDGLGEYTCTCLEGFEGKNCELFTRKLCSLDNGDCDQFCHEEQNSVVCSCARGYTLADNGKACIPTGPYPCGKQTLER
T1 sequence (P00742 235-488 limits assumed): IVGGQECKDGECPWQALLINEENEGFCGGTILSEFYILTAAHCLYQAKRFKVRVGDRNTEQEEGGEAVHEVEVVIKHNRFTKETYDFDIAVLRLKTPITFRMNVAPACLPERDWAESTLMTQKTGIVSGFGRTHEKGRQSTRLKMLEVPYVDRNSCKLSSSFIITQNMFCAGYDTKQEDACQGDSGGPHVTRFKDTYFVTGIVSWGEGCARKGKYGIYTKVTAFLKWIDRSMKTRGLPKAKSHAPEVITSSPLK
Sequence of Serine protease 1 (P07477 whole entry): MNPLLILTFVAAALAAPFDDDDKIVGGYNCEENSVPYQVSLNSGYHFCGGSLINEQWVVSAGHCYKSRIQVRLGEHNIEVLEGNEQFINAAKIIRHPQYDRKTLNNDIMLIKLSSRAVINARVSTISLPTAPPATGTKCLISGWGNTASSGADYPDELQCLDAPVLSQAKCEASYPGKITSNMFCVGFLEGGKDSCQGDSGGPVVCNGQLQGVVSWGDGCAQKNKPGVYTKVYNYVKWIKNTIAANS

IC50 (Prothrombin)	IC50 (Coagulation factor X [1])	Ki (Serine protease 1)	Ki (Coagulation factor X [2])	Compound
> 100 µM	0.00272 µM			N=C(N)c1cccc(-c2cccc([C@H](CCCNc3ccncc3)C(=O)O)c2)c1
		5 µM	210 µM	CC1CNc2c(cccc2S(=O)(=O)N[C@@H](CCCN=C(N)N)C(=O)N2CC[C@@H](C)CC2C(=O)O)C1 (some centres undefined)
